From ChEMBL document CHEMBL4831527, “Structure-Based Design and Discovery of Pyridyl-Bearing Fused Bicyclic HIV-1 Inhibitors: Synthesis, Biological Characterization, and Molecular Modeling Studies” (J Med Chem, 2021)
pEC50, pIC50: −log10 of the molar value. Active and inactive are the calls of the source. The rule behind the calls is not given here.

Columns and labels:
[1] = tested on: Human immunodeficiency virus 1; experiment: Antiviral activity against HIV1 harboring reverse transcriptase L100I mutant infected in human MT4 cells assessed as protection against virus-induced cytopathic effect incubated for 5 days by MTT assay; assay type: functional, organism-based; conditions: Human immunodeficiency virus 1, MT4, 120 h
[2] = Selectivity index, ratio of CC50 for mock-infected human MT4 cells to EC50 for HIV1 RES056 infected in human MT4 cells; assay type: toxicity, cell-based; conditions: MT4 cells (mock-infected and HIV1 RES056 infected), read-out: Ratio CC50/EC50
[3] = tested on: Human immunodeficiency virus 1; experiment: Antiviral activity against HIV1 harboring reverse transcriptase F227L/V106A double mutant infected in human MT4 cells assessed as protection against virus-induced cytopathic effect incubated for 5 days by MTT assay; assay type: functional, organism-based; conditions: Human immunodeficiency virus 1, MT4, 120 h
[4] = tested on: Human immunodeficiency virus 1; experiment: Potency index, ratio of EFV EC50 to test compound EC50 for antiviral activity against HIV1 RES056 infected in human MT4 cells; assay type: functional
[5] = target: Human immunodeficiency virus type 1 reverse transcriptase (Human immunodeficiency virus 1, UniProt Q72547); experiment: Inhibition of wild type HIV1 p66/p51 reverse transcriptase using poly(rA) as template, oligo(dT)16 as primer and RNA/DNA as substrate measured after 40 mins by PICOGreen-dye based spectrofluorimetry analysis
[6] = tested on: Human immunodeficiency virus 1; experiment: Antiviral activity against HIV1 3B infected in human MT4 cells assessed as protection against virus-induced cytopathic effect incubated for 5 days by MTT assay; assay type: functional, organism-based; conditions: Human immunodeficiency virus 1, 3B, MT4, 120 h
[7] = tested on: Human immunodeficiency virus 2; experiment: Antiviral activity against HIV2 ROD infected in human MT4 cells assessed as protection against virus-induced cytopathogenicity after 5 days by MTT assay; assay type: functional, organism-based; conditions: time 5.0 day
[8] = Cytotoxicity against mock-infected human MT4 cells assessed as reduction in cell viability measured after 5 days by MTT assay; assay type: cell-based; conditions: time 5 day
[9] = tested on: Human immunodeficiency virus 1; experiment: Antiviral activity against HIV1 RES056 infected in human MT4 cells assessed as protection against virus-induced cytopathic effect incubated for 5 days by MTT assay; assay type: functional, organism-based; conditions: Human immunodeficiency virus 1, RES056, MT4, 120 h
[10] = tested on: Human immunodeficiency virus 1; experiment: Antiviral activity against HIV1 harboring reverse transcriptase K103N mutant infected in human MT4 cells assessed as protection against virus-induced cytopathic effect incubated for 5 days by MTT assay; assay type: functional, organism-based; conditions: Human immunodeficiency virus 1, MT4, 120 h
[11] = Half life in human liver microsomes at 1 uM in presence of NADPH by LC-MS/MS analysis; assay type: ADME, Microsome
[12] = tested on: Human immunodeficiency virus 1; experiment: Antiviral activity against HIV1 harboring reverse transcriptase Y188L mutant infected in human MT4 cells assessed as protection against virus-induced cytopathic effect incubated for 5 days by MTT assay; assay type: functional, organism-based; conditions: Human immunodeficiency virus 1, MT4, 120 h
in vitro = conditions: human, liver microsomes
[13] = tested on: Human immunodeficiency virus 1; experiment: Antiviral activity against HIV1 harboring reverse transcriptase Y181C mutant infected in human MT4 cells assessed as protection against virus-induced cytopathic effect incubated for 5 days by MTT assay; assay type: functional, organism-based; conditions: Human immunodeficiency virus 1, MT4, 120 h
[14] = Selectivity index, ratio of CC50 for mock-infected human MT4 cells to EC50 for HIV1 3B infected in human MT4 cells; assay type: toxicity, cell-based; conditions: MT4 cells (mock-infected and HIV1 3B infected), read-out: Ratio CC50/EC50
[15] = tested on: Human immunodeficiency virus 1; experiment: Antiviral activity against HIV1 harboring reverse transcriptase E138K mutant infected in human MT4 cells assessed as protection against virus-induced cytopathic effect incubated for 5 days by MTT assay; assay type: functional, organism-based; conditions: Human immunodeficiency virus 1, MT4, 120 h
[16] = tested on: Human immunodeficiency virus 1; experiment: Potency index, ratio of ETR EC50 to test compound EC50 for antiviral activity against HIV1 harboring reverse transcriptase E138K mutant infected in human MT4 cells; assay type: functional

SMILES	pEC50 [1]	selectivity ratio [2]	pEC50 [3]	Ratio EC50 [4]	pIC50 [5]	pEC50 [6]	Activity [7]	CC50 at 120 h [8] [µM]	pEC50 [9]	pEC50 [10]	half-life at 1 µM [11] [min]	pEC50 [12]	CLint scaled at 1 h, 1 µM (in vitro) [mL/min/kg]	pEC50 [13]	selectivity ratio [14]	pEC50 [15]	Ratio EC50 [16]
Cc1cc(/C=C/C#N)cc(C)c1Oc1nc(Nc2ccc(C#N)cc2)nn2cccc12	8.11	81	< 4.38	2.4	7.37	7.90	inactive	5	7.21	8.32	43.3	< 4.38	28.8	7.71	395	< 4.38	
Cc1cc(C#N)cc(C)c1Oc1nc(Nc2ccc(C#N)cc2)nc2c1ccn2CC(=O)N1CCOCC1	6.81	3	6.84		6.81	8.11	inactive	2.3	6.11	8.23	3.1	7.25	397	6.83	297	8.17	2.2
Cc1cc(/C=C/C#N)cc(C)c1Oc1nc(Nc2ccc(C#N)cc2)nc2c1CCCC2	7.74	105	7.02	2.1	6.92	7.85	inactive	7.2	7.17	7.77	27.4	7.11	45.5	7.39	513	7.21	
